Results on two molecules are retold here after patent US20160192641A1, “STABLE EMULSION FORMULATION HINDERING INTERACTION ACROSS THE WATER-OIL INTERFACE” (Dow AgroSciences LLC, priority 2007, published 2016).

The text on the series:
For a given oil phase which is often designed to meet specific market, customer, or application needs, actives or other components in aqueous phase can form and grow large crystals in oil phase due to high solubilities and Oswald Ripening, and result in emulsion destabilization.

Bounds are passed on as bounds.

`COc1cnc(OC)n2nc(NS(=O)(=O)c3c(OCC(F)F)cccc3C(F)(F)F)nc12` [penoxsulam] returned a solubilities in acetochlor of over 1000 ppm.
Take `O=C(Nc1ccc(F)cc1F)c1cccnc1Oc1cccc(C(F)(F)F)c1` [diflufenican]: the “solubility in methyl soyate” value is given as over 1 % by wt.
